Broadly, the AC50 is the midpoint of the concentration-response curve, whichever way the signal moves. For orientation: IC50 means the concentration that gives 50% inhibition. The CC50 is the concentration at which the toxic effect on the cells reaches its halfway point. As a reminder, the Ki is the dissociation constant of the complex between target and ligand, obtained from inhibition or displacement.

Results on four molecules are retold here after ChEMBL document CHEMBL1201862, “PubChem BioAssay data set” (2004).

The target in experiment [1] is T1, Replicative DNA helicase DnaB (Mycobacterium tuberculosis, UniProt P9WMR3).
T1 sequence (P9WMR3 whole entry): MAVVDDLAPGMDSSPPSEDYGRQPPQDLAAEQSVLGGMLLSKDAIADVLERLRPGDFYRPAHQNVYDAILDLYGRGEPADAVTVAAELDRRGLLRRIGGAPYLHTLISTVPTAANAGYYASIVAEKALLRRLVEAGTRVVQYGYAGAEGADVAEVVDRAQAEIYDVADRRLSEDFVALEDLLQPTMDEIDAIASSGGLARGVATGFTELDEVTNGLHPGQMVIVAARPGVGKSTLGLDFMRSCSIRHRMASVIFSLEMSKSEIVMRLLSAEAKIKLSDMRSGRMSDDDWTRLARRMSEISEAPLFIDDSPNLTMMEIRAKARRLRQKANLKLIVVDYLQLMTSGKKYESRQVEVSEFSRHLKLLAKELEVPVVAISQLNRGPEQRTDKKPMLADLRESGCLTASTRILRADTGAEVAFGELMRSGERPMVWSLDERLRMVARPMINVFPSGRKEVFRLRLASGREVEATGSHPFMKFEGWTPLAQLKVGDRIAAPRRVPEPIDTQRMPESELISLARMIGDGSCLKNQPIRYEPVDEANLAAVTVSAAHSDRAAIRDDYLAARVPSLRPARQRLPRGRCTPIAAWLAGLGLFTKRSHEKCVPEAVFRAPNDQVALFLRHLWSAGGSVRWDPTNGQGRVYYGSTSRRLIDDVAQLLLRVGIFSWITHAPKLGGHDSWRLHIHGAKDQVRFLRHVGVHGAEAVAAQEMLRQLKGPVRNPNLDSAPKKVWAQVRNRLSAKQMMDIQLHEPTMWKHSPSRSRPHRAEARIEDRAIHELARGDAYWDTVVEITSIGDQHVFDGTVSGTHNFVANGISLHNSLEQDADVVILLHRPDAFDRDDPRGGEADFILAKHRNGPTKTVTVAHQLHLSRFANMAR
Description: DnaB intein splicing inhibitors, dose response, biochemical, cell-free fluorescence (AID 449749). The experiment is classed as functional.

The nature of experiment [2]: reduction of Shn3 3'UTR-driven luciferase in osteoblasts – cell-based, Clone20 osteoblasts, firefly luciferase, cherry-picked, dose response (AID 624132).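 Note: firefly luciferase luminescence from reporter carrying the Shn3 3'UTR in osteoblasts.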 The experiment is classed as functional.
Experiment [3] has as its target Sphingosine 1-phosphate receptor 2 (Homo sapiens, UniProt O95136). Description: Dose Response Cell Based Assay for Antagonists of the S1P2 Receptor. [Related pubchem assays: 856, 736 ]. The class given is functional.
Experiment [4] has as its target T2, Cytochrome P450 1A2 (Homo sapiens, UniProt P05177).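 Note: PubChem cytochrome P450 panel assay, CYP1A2 panel member.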
T2 sequence (P05177 whole entry): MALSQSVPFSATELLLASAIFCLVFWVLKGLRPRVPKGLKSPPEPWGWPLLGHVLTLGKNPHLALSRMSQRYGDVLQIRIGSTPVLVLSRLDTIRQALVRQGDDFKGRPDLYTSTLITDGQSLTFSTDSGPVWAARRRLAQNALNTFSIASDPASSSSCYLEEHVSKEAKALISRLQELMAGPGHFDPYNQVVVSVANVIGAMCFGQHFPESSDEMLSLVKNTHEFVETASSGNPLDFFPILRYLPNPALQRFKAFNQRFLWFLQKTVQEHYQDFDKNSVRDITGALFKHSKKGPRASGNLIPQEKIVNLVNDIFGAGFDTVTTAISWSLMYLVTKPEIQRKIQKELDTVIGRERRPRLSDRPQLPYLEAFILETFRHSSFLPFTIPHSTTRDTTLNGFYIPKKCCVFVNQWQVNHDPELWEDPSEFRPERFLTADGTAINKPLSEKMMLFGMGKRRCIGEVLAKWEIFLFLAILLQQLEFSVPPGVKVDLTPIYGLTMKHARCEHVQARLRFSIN

A short description of experiment [5]: viability loss in THP-1 monocytes – THP-1 cells, cytotoxicity control for Vif-APOBEC3G degradation inhibitor project, dose response (AID 1117359). The class given is functional. The conditions noted are these: THP-1.
In experiment [6] the target is Testis-specific serine/threonine-protein kinase 1 (Homo sapiens, UniProt Q9BXA7). The experiment is classed as functional.
Experiment [7] concerns the target Serine/threonine-protein kinase Nek2 (Homo sapiens, UniProt P51955). The class given is functional.
Experiment [8] addresses Serine/threonine-protein kinase BRSK1 (Homo sapiens, UniProt Q8TDC3). The experiment is classed as functional.
Experiment [9] deals with Tyrosine-protein kinase BTK (Homo sapiens, UniProt Q06187). The class given is functional.
Experiment [10] deals with ALK tyrosine kinase receptor (Homo sapiens, UniProt Q9UM73). The experiment is classed as functional.
Experiment [11] has as its target Dual specificity protein kinase CLK4 (Homo sapiens, UniProt Q9HAZ1). The experiment is classed as functional.
The target in experiment [12] is Cell division cycle 7-related protein kinase (Homo sapiens, UniProt O00311). The class given is functional.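 Note: value obtained from a kinome-wide kinase panel.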
The target in experiment [13] is Serine/threonine-protein kinase PLK4 (Homo sapiens, UniProt O00444). The class given is functional.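 Note: PLK4 measured as one member of a kinome-wide kinase profiling panel.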
The target in experiment [14] is Serine/threonine-protein kinase D3 (Homo sapiens, UniProt O94806). The class given is functional.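 Note: determined within a kinase panel screen, with PRKCN as the panel member.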
For experiment [15], the target named is High affinity nerve growth factor receptor (Homo sapiens, UniProt P04629). The experiment is classed as functional.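 Note: NTRK1 tested as one member of a kinome-wide profiling panel.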
The target in experiment [16] is Mitogen-activated protein kinase kinase kinase kinase 5 (Homo sapiens, UniProt Q9Y4K4). The class given is functional.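 Note: measured as one member of a kinome-spanning kinase panel.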
Experiment [17] concerns the target Dual specificity tyrosine-phosphorylation-regulated kinase 4 (Homo sapiens, UniProt Q9NR20). The experiment is classed as functional.
The target in experiment [18] is RAC-gamma serine/threonine-protein kinase (Homo sapiens, UniProt Q9Y243). The experiment is classed as functional.
Experiment [19] has as its target Protein kinase C iota type (Homo sapiens, UniProt P41743). The experiment is classed as functional.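 Note: measured within a kinome-wide kinase panel, PRKCI as panel member.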
Experiment [20] concerns the target 5'-AMP-activated protein kinase catalytic subunit alpha-1 (Homo sapiens, UniProt Q13131). The class given is functional.
The target of experiment [21] is MAP/microtubule affinity-regulating kinase 3 (Homo sapiens, UniProt P27448). The class given is functional.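 Note: MARK3 affinity measured as one member of a kinome panel.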
Experiment [22] has as its target Epidermal growth factor receptor (Homo sapiens, UniProt P00533).
The target in experiment [23] is Proto-oncogene tyrosine-protein kinase Src (Homo sapiens, UniProt P12931). The experiment is classed as functional.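 Note: SRC entry within a kinome-wide kinase profiling panel.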
For experiment [24], the target named is cAMP-dependent protein kinase catalytic subunit alpha (Homo sapiens, UniProt P17612). The class given is functional.
For experiment [25], the target named is Insulin receptor (Homo sapiens, UniProt P06213). The class given is functional.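 Note: insulin receptor kinase tested as one member of a kinome-wide kinase panel.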
Experiment [26] has as its target Cyclin-dependent kinase 7 (Homo sapiens, UniProt P50613). The class given is functional.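 Note: value comes from a kinome-wide kinase profiling panel in which CDK7 is one member.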

Molecules are shown by their SMILES. Calls of active or inactive are those of the source.

Sequence of Dual specificity protein kinase CLK4 (Q9HAZ1 whole entry): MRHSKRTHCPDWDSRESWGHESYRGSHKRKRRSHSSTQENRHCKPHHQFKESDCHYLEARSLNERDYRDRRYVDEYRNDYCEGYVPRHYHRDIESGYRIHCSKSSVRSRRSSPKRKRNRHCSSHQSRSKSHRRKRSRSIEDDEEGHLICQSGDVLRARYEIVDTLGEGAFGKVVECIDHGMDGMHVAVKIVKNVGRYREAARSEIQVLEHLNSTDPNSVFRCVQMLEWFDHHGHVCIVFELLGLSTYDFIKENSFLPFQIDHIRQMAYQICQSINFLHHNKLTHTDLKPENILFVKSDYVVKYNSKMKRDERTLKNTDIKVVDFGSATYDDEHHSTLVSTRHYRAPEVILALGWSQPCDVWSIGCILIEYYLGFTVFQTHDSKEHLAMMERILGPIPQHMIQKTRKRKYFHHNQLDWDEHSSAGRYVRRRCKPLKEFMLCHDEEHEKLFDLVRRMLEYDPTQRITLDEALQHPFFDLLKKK
Sequence of MAP/microtubule affinity-regulating kinase 3 (P27448 whole entry): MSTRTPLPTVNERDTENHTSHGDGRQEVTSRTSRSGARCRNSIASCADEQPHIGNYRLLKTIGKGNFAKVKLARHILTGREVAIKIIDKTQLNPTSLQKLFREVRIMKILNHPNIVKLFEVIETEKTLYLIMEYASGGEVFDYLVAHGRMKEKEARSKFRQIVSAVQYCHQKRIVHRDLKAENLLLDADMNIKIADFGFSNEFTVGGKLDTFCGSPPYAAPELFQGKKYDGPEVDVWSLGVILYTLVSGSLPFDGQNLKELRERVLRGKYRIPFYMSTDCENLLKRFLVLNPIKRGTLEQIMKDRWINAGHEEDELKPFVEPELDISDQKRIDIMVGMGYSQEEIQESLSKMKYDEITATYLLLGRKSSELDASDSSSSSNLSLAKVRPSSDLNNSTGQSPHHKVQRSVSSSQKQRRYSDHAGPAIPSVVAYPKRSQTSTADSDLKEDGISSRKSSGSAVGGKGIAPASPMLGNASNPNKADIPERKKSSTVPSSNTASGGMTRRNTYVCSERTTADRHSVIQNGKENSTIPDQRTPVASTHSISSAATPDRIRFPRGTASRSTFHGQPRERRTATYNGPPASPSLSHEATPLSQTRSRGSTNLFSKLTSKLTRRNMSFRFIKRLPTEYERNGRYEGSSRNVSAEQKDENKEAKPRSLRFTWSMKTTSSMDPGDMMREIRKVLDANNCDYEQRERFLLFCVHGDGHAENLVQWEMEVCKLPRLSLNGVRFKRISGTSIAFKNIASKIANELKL
Sequence of Epidermal growth factor receptor (P00533 whole entry): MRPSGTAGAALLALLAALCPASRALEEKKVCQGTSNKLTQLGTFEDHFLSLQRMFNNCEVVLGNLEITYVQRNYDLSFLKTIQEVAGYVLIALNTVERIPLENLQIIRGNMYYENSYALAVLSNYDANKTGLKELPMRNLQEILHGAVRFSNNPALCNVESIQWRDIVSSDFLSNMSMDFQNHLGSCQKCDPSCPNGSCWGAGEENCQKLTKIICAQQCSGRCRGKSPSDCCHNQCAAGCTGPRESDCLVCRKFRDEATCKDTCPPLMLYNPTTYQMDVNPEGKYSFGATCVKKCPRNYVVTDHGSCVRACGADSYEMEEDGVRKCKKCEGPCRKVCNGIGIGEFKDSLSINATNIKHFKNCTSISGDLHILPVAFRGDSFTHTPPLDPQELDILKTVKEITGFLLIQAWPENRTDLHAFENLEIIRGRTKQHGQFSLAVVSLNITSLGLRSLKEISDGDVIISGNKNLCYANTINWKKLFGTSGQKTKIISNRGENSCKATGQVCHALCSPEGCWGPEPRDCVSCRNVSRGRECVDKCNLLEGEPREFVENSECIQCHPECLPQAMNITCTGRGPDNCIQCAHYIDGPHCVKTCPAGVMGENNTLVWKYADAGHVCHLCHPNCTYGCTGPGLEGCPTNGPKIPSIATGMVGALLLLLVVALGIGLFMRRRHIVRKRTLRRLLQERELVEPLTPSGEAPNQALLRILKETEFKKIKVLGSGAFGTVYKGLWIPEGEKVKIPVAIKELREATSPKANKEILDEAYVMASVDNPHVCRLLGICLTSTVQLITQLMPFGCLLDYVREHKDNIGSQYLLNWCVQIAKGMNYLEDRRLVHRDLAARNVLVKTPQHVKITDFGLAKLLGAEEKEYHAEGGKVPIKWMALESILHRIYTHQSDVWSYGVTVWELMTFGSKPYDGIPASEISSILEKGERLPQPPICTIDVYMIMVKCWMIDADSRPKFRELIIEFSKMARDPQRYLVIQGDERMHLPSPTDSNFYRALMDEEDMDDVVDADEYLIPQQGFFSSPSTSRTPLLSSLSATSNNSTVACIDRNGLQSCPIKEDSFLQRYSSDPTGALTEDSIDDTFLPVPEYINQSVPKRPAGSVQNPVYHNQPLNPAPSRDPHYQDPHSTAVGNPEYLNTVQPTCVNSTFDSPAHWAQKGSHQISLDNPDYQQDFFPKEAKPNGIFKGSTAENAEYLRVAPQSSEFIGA
Sequence of RAC-gamma serine/threonine-protein kinase (Q9Y243 whole entry): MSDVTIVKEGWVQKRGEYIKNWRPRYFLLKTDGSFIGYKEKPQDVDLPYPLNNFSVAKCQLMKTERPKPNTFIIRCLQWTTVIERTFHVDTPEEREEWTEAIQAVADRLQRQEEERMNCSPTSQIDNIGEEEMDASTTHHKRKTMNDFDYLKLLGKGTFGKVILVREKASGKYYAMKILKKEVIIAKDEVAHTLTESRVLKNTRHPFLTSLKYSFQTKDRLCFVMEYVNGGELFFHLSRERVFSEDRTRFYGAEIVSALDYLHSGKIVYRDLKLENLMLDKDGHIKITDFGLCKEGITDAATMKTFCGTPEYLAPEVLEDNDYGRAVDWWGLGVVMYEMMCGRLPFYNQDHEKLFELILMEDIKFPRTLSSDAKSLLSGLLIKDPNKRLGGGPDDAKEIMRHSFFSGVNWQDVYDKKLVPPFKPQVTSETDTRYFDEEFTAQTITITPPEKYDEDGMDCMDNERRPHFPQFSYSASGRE
Sequence of Insulin receptor (P06213 28-758 limits assumed): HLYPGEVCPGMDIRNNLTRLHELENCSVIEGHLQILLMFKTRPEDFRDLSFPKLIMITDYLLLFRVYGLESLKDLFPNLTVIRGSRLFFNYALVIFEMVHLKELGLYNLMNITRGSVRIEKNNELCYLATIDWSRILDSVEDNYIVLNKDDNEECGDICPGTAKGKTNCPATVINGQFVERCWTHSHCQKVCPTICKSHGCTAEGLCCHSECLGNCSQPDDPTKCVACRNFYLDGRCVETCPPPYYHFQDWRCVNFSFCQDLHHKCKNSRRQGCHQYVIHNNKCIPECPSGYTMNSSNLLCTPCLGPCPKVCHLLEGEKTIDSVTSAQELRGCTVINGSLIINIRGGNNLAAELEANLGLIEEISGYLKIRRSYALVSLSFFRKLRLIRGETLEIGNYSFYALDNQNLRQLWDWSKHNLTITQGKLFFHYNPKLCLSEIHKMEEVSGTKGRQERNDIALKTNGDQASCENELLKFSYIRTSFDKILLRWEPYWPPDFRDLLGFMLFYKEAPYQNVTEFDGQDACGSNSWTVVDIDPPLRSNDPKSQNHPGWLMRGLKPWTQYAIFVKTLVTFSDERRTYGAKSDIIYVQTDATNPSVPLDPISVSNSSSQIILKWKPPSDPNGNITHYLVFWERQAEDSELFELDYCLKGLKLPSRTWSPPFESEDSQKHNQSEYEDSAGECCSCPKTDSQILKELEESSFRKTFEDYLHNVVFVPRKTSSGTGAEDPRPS
Sequence of Insulin receptor (P06213 763-1382 limits assumed): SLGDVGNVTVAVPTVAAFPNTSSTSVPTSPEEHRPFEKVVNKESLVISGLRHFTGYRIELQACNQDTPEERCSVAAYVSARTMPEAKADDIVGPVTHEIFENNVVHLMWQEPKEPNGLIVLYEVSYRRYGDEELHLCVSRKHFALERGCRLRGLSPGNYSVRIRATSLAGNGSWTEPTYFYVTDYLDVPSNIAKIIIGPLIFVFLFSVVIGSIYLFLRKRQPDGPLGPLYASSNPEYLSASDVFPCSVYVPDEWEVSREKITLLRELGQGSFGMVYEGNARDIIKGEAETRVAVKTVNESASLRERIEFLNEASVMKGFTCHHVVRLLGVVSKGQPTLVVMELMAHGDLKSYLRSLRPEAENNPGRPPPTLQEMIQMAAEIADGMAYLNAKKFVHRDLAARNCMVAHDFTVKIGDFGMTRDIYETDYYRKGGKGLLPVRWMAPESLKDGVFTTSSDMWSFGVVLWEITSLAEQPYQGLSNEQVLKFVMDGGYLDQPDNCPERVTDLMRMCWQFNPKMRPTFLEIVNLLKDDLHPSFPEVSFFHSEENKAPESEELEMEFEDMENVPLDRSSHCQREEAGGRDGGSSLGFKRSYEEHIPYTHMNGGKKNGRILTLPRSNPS
Sequence of Testis-specific serine/threonine-protein kinase 1 (Q9BXA7 whole entry): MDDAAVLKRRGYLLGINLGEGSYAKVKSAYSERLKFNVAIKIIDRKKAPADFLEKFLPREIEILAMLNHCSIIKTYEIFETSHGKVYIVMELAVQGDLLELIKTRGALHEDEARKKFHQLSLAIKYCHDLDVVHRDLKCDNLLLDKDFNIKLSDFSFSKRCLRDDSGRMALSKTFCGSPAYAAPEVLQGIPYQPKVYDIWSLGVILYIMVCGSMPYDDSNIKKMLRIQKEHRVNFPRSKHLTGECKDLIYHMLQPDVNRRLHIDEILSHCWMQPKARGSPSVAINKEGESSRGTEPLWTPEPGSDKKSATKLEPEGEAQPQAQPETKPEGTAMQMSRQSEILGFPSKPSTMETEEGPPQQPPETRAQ
Sequence of Cyclin-dependent kinase 7 (P50613 whole entry): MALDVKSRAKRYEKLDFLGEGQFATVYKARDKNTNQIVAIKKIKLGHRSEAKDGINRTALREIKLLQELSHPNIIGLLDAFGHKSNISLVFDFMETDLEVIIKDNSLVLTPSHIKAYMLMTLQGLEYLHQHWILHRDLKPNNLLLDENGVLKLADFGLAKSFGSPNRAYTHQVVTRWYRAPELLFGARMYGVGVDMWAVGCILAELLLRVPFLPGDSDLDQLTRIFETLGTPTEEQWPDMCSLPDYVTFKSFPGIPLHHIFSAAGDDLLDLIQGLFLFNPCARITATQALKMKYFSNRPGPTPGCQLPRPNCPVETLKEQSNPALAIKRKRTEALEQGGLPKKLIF

Consider `COC(=O)C1CN(C#N)N(c2ccc(Cl)cc2)C12c1ccccc1-c1ccccc12` (stereo unspecified), for which the AC50 in experiment [1] is 3.16 µM (active); in [2], < 0.26 µM (active). Moreover, in [3], the IC50 was 2.79 µM (active).
As for `CN(C)S(=O)(=O)Oc1cccc(C(=O)Nc2ccc(Cl)c(Cl)c2)c1`, the AC50 in [4] was 2 µM (inconclusive).
As for `O=C1NC(=S)S/C1=C\C=C\c1ccc([N+](=O)[O-])o1`, the cytotoxic concentration (CC50) in experiment [5] was 4.04 µM (active).
For the molecule `Nc1noc2cccc(-c3cccc(O)c3)c12`, the Ki in experiment [6] was > 1.58 µM (inactive); in [7], > 10 µM (inactive); in [8], 7.94 µM (active); in experiment [9], > 39.8 µM (inactive); in experiment [10], 6.31 µM (active); in experiment [11], 1.26 µM (active). Also, the Ki was > 1.26 µM (inactive) in experiment [12]; 2 µM (active) in experiment [13]; > 10 µM (inactive) in experiment [14]; > 2.51 µM (inactive) in [15]; > 7.94 µM (inactive) in experiment [16]; > 7.94 µM (inactive) in experiment [17]. The Ki is > 10 µM (inactive) in experiment [18]; > 5.01 µM (inactive) in [19]; > 25.1 µM (inactive) in experiment [20]; > 6.31 µM (inactive) in [21]; > 2 µM (inactive) in experiment [22]; 1.26 µM (active) in experiment [23]. Besides, the results for the inhibition constant Ki in [24], in experiment [25] and in [26] were 2.51 µM (active), > 5.01 µM (inactive) and 20 µM (active), respectively.
